Assay results as given in patent publication US9000186B2, “Ring-fused heterocyclic derivative” (Kyowa Hakko Kirin Co., Ltd., priority 2011, dated 2015).
pIC50: −log10 of the molar value. Like-named read-outs stand apart in the source and are kept apart here.

Target: T1, human Cav3.2 T-type Ca2+ channel (Homo sapiens, UniProt O95180)
T1 construct: expressed in transfected cells; host or cells: KJMGER8 cells (Namalwa cell-derived cell line)
Experiment: Inhibitory effect for intracellular calcium response via Cav3.2 T-type Ca2+ channels (FLIPR Calcium 3 Assay Kit)
Format: cell-based

[1] = human Cav3.2-expressing KJMGER8 cells (Namalwa-derived), calcium response induced by 5 mmol/L CaCl2, normalised to 3 μmol/L mibefradil, read-out: IC50 for the human Cav3.2 T-type Ca2+ current

T1 sequence (O95180 whole entry): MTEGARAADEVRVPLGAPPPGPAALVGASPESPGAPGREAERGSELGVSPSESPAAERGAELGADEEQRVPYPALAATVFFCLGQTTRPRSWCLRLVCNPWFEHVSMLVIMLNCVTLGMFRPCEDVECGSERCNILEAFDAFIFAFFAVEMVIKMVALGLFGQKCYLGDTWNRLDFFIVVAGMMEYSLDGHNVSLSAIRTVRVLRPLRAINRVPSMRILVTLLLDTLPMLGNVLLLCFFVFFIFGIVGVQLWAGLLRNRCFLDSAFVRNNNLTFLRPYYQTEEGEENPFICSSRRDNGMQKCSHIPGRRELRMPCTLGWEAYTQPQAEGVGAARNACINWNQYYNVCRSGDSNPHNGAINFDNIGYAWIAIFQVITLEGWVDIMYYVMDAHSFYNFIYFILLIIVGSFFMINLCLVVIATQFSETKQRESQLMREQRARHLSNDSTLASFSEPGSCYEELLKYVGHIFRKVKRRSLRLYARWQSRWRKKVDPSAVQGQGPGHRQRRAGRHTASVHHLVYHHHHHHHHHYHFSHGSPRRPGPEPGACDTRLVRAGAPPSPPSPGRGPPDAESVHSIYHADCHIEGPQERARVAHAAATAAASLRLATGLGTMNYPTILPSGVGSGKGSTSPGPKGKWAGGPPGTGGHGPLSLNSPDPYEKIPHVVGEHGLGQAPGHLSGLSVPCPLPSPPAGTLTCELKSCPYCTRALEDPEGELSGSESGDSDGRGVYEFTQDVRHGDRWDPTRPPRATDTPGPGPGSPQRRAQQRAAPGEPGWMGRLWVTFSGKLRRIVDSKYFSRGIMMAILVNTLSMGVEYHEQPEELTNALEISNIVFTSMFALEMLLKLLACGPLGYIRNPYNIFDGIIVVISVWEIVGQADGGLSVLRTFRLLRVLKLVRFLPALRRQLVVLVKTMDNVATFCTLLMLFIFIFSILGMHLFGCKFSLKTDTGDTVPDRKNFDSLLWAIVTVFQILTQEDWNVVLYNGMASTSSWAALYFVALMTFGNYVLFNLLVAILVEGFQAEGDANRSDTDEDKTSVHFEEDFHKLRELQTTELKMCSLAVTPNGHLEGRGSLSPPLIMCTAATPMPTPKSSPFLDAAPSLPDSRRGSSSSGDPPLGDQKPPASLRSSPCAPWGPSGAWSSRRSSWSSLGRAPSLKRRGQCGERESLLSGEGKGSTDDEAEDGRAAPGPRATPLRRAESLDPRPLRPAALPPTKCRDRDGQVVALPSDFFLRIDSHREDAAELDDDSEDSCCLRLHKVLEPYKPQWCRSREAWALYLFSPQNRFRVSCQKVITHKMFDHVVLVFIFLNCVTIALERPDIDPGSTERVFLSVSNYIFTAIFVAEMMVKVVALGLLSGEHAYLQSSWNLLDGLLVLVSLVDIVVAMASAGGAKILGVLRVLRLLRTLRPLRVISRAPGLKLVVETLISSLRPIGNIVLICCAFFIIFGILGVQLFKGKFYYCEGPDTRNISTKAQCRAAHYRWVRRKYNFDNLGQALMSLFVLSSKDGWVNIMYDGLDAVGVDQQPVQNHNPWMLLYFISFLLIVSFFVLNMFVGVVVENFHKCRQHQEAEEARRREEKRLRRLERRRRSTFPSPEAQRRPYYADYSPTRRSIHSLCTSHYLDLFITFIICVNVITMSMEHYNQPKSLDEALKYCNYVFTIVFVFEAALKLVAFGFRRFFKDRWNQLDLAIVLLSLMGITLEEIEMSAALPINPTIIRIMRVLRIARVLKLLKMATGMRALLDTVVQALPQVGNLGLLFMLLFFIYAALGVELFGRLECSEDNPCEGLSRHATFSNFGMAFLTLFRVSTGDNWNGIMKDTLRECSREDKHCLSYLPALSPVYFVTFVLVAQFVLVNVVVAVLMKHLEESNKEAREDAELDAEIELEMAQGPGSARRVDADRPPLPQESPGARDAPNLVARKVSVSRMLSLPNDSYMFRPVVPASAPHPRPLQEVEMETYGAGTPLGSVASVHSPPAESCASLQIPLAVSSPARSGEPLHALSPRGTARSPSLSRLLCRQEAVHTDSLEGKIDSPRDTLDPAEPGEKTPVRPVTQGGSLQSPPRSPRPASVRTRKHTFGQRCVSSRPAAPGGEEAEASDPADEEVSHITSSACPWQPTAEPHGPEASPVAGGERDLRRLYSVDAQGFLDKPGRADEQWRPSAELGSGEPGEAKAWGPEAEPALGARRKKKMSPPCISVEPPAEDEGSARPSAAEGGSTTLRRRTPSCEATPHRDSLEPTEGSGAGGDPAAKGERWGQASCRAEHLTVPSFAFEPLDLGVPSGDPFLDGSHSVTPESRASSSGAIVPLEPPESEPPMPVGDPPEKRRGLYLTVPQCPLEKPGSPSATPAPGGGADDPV

Row | Compound | pIC50 [1] | pIC50
1 | CC(C)c1nc2cc(C(=O)Nc3ccccc3)c(Cl)cn2c1S(=O)(=O)Nc1ccccc1 [Compound 155, 6-Chloro-2-isopropyl-N-phenyl-3-(N-phenylsulfamoyl)imidazo[1,2-a]pyridine-7-carboxamide] | > 7.00 | 
2 | O=C(Nc1ccccc1)c1cc2nc(C(F)(F)F)c(CC3CCC(F)(F)CC3)n2cc1Br [Compound 117, 6-Bromo-3-(4,4-difluorocyclohexylmethyl)-N-phenyl-2-trifluoromethylimidazo[1,2-a]pyridine-7-carboxamide] |  | > 7.00
3 | CC(C)c1nc2cc(C(=O)Nc3ccncc3)ccn2c1Cc1ccccc1 [Compound 37, 3-Benzyl-2-isopropyl-N-(pyridin-4-yl)imidazo[1,2-a]pyridine-7-carboxamide] |  | > 7.00
4 | Cc1cc(C(=O)NC2CCC(=O)CC2)cc2nc(C(F)(F)F)c(CC3CCC(F)(F)CC3)n12 [Compound 71, 3-(4,4-Difluorocyclohexylmethyl)-5-methyl-N-(4-oxocyclohexyl)-2-trifluoromethylimidazo[1,2-a]pyridine-7-carboxamide] |  | > 7.00
5 | CC(C)c1nc2cc(C(=O)NCC3CC3)c(Cl)cn2c1S(=O)(=O)N1CC(F)(F)C1 [Compound 150, 6-Chloro-N-cyclopropylmethyl-3-(3,3-difluoroazetidin-1-ylsulfonyl)-2-isopropylimidazo[1,2-a]pyridine-7-carboxamide] | > 7.00 | 
6 | O=C(Nc1ccccc1)c1cc2nc(C(F)(F)F)c(CC3CCC(F)(F)CC3)n2cc1Cl [Compound 107, 6-Chloro-3-(4,4-difluorocyclohexylmethyl)-N-phenyl-2-trifluoromethylimidazo[1,2-a]pyridine-7-carboxamide] | > 7.00 | 
7 | CC(C)c1nc2nc(C(=O)NC3CCCCC3)ccn2c1S(=O)(=O)N1CCC(F)(F)CC1 [Compound 172, N-Cyclohexyl-3-(4,4-difluoropiperidin-1-ylsulfonyl)-2-isopropylimidazo[1,2-a]pyrimidine-7-carboxamide] | > 7.00 | 
8 | CC(C)c1nc2nc(C(=O)Nc3ccccc3)ccn2c1S(=O)(=O)N1CCC(F)(F)CC1 [Compound 171, 3-(4,4-Difluoropiperidin-1-ylsulfonyl)-2-isopropyl-N-phenylimidazo[1,2-a]pyrimidine-7-carboxamide] | > 7.00 | 
9 | Cc1cn2c(S(=O)(=O)C3CCCCC3)c(C(C)C)nc2cc1C(=O)Nc1ccccc1 [Compound 163, 3-(Cyclohexylsulfonyl)-2-isopropyl-6-methyl-N-phenyl-imidazo[1,2-a]pyridine-7-carboxamide] | > 7.00 | 
10 | CC(C)c1nc2cc(C(=O)NOCc3ccccc3)c(Cl)cn2c1S(=O)(=O)N1CC(F)(F)C1 [Compound 152, N-Benzyloxy-6-chloro-3-(3,3-difluoroazetidin-1-ylsulfonyl)-2-isopropylimidazo[1,2-a]pyridine-7-carboxamide] | > 7.00 | 
11 | CC(C)c1nc2cc(C(=O)Nc3ccccc3)c(Cl)cn2c1S(=O)(=O)NC1CC(F)(F)C1 [Compound 154, 6-Chloro-3-{N-(3,3-difluorocyclobutyl)sulfamoyl}-2-isopropyl-N-phenylimidazo[1,2-a]pyridine-7-carboxamide] | > 7.00 | 
12 | CC(C)c1nc2cc(C(=O)NC3CCOC(C)(C)C3)c(Cl)cn2c1S(=O)(=O)N1CC(F)(F)C1 (stereo not shown) [Compound 153, 6-Chloro-3-(3,3-difluoroazetidin-1-ylsulfonyl)-N-(2,2-dimethyltetrahydro-2H-pyran-4-yl)-2-isopropylimidazo[1,2-a]pyridine-7-carboxamide] |  | > 7.00
13 | CC(C)c1nc2cc(C(=O)Nc3ccccc3)ccn2c1S(=O)(=O)N(C1CC1)C1CC1 [Compound 131, 3-(N,N-Dicyclopropylsulfamoyl)-2-isopropyl-N-phenylimidazo[1,2-a]pyridine-7-carboxamide] |  | > 7.00
14 | Cc1cc(C(=O)NOC2CCOCC2)cc2nc(C(F)(F)F)c(CC3CCC(F)(F)CC3)n12 [Compound 90, 3-(4,4-Difluorocyclohexylmethyl)-5-methyl-N-(tetrahydro-2H-pyran-4-yloxy)-2-trifluoromethylimidazo[1,2-a]pyridine-7-carboxamide] |  | > 7.00
15 | O=C(Nc1ccccc1)c1cc(Cl)n2c(CC3CCC(F)(F)CC3)c(C(F)(F)F)nc2c1 [Compound 102, 5-Chloro-3-(4,4-difluorocyclohexylmethyl)-N-phenyl-2-trifluoromethylimidazo[1,2-a]pyridine-7-carboxamide] |  | > 7.00
16 | C=Cc1cn2c(CC3CCC(F)(F)CC3)c(C(F)(F)F)nc2cc1C(=O)Nc1ccccc1 [Compound 120, 3-(4,4-Difluorocyclohexylmethyl)-N-phenyl-2-trifluoromethyl-6-vinylimidazo[1,2-a]pyridine-7-carboxamide] | > 7.00 | 
17 | Cc1cc(C(=O)N(C)C2CCOCC2)cc2nc(C(F)(F)F)c(CC3CCC(F)(F)CC3)n12 [Compound 91, 3-(4,4-Difluorocyclohexylmethyl)-N,5-dimethyl-N-(tetrahydro-2H-pyran-4-yl)-2-trifluoromethylimidazo[1,2-a]pyridine-7-carboxamide] |  | > 7.00

Row | Compound | pIC50 [1] | pIC50
18 | O=C(Nc1ccccc1)c1ccn2c(S(=O)(=O)N3CC(F)(F)C3)c(C(F)(F)F)nc2c1 [Compound 146, 3-(3,3-Difluoroazetidin-1-ylsulfonyl)-N-phenyl-2-trifluoromethylimidazo[1,2-a]pyridine-7-carboxamide] | > 7.00 | 
19 | CC(C)c1nc2cc(C(=O)Nc3ccccc3)c(Cl)cn2c1S(=O)(=O)NC(C)(C)C [Compound 156, 3-(N-tert-Butylsulfamoyl)-6-chloro-2-isopropyl-N-phenylimidazo[1,2-a]pyridine-7-carboxamide] | > 7.00 | 
20 | Cc1cc(C(=O)NC2CCSCC2)cc2nc(C(F)(F)F)c(CC3CCC(F)(F)CC3)n12 [Compound 74, 3-(4,4-Difluorocyclohexylmethyl)-5-methyl-N-(tetrahydro-2H-thiopyran-4-yl)-2-trifluoromethylimidazo[1,2-a]pyridine-7-carboxamide] |  | > 7.00
21 | CS(=O)(=O)c1cccc(NC(=O)c2ccn3c(CC4CCC(F)(F)CC4)c(C(F)(F)F)nc3c2)c1 [Compound 48, 3-(4,4-Difluorocyclohexylmethyl)-N-(3-methanesulfonylphenyl)-2-trifluoromethylimidazo[1,2-a]pyridine-7-carboxamide] | > 7.00 | 
22 | C#CC(C)(C)NS(=O)(=O)c1c(C(C)C)nc2cc(C(=O)Nc3ccccc3)c(Cl)cn12 [Compound 179, 6-Chloro-2-isopropyl-3-{N-(2-methylbut-3-yne-2-yl)sulfamoyl}-N-phenylimidazo[1,2-a]pyridine-7-carboxamide] | > 7.00 | 
23 | CC(C)(C)c1nc2cc(C(=O)NNC(=O)c3ccccc3)ccn2c1CC1CCCCC1 [Compound 17, N′-Benzoyl-2-tert-butyl-3-cyclohexylmethylimidazo[1,2-a]pyridine-7-carbohydrazide] |  | > 7.00
24 | CC(C)c1nc2cc(C(=O)Nc3nccs3)ccn2c1COC1CCCCC1 [Compound 25, 3-Cyclohexyloxymethyl-2-isopropyl-N-(thiazol-2-yl)imidazo[1,2-a]pyridine-7-carboxamide] |  | > 7.00
25 | Cc1cc(-c2nc3ccccc3[nH]2)cc2nc(C(F)(F)F)c(CC3CCC(F)(F)CC3)n12 [Compound 127, 2-{3-(4,4-Difluorocyclohexylmethyl)-5-methyl-2-trifluoromethylimidazo[1,2-a]pyridin-7-yl}-1H-benzimidazole] | > 7.00 | 
26 | CC(C)c1nc2cc(C(=O)Nc3ccccc3)ccn2c1SC1CCCCC1 [Compound 40, 3-Cyclohexylthio-2-isopropyl-N-phenylimidazo[1,2-a]pyridine-7-carboxamide] |  | > 7.00
27 | CN(C(C)(C)C)S(=O)(=O)c1c(C(F)(F)F)nc2cc(C(=O)Nc3ccccc3)ccn12 [Compound 147, 3-(N-tert-Butyl-N-methylsulfamoyl)-N-phenyl-2-trifluoromethylimidazo[1,2-a]pyridine-7-carboxamide] |  | > 7.00
28 | Cc1cn2c(S(=O)(=O)C3CCCCC3)c(C(C)C)nc2cc1C(=O)Nc1ccncc1 [Compound 39, 3-Cyclohexylsulfonyl-2-isopropyl-6-methyl-N-(pyridin-4-yl)imidazo[1,2-a]pyridine-7-carboxamide] |  | > 7.00
29 | CC1(C)COCCC1NC(=O)c1ccn2c(CC3CCC(F)(F)CC3)c(C(F)(F)F)nc2c1 (stereo not shown) [Compound 53, 3-(4,4-Difluorocyclohexylmethyl)-N-(3,3-dimethyltetrahydro-2H-pyran-4-yl)-2-trifluoromethylimidazo[1,2-a]pyridine-7-carboxamide] |  | > 7.00
30 | CC(C)c1nc2cc(NC(=O)C3CCCCC3)ncn2c1S(=O)(=O)N1CCC(F)(F)CC1 [Compound 175, N-{3-(4,4-Difluoropiperidin-1-ylsulfonyl)-2-isopropylimidazo[1,2-c]pyrimidin-7-yl}cyclohexanecarboxamide] | > 7.00 | 
31 | CC(C)c1nc2cc(C(=O)NC3CC(F)(F)C3)c(Cl)cn2c1S(=O)(=O)NC(C)(C)C [Compound 158, 3-(N-tert-Butylsulfamoyl)-6-chloro-N-(3,3-difluorocyclobutyl)-2-isopropylimidazo[1,2-a]pyridine-7-carboxamide] | > 7.00 | 
32 | Cc1c(I)c(C(=O)Nc2ccccc2)cc2nc(C(F)(F)F)c(CC3CCC(F)(F)CC3)n12 [Compound 125, 3-(4,4-Difluorocyclohexylmethyl)-6-iodo-5-methyl-N-phenyl-2-trifluoromethylimidazo[1,2-a]pyridine-7-carboxamide] |  | > 7.00
33 | Cc1c(Cl)c(C(=O)NC2CCOCC2)cc2nc(C(F)(F)F)c(CC3CCC(F)(F)CC3)n12 [Compound 124, 6-Chloro-3-(4,4-difluorocyclohexylmethyl)-5-methyl-N-(tetrahydro-2H-pyran-4-yl)-2-trifluoromethylimidazo[1,2-a]pyridine-7-carboxamide] |  | > 7.00
34 | CC(C)c1nc2cc(C(=O)NC3CC(F)(F)C3)c(Cl)cn2c1S(=O)(=O)N1CC(F)(F)C1 [Compound 151, 6-Chloro-3-(3,3-difluoroazetidin-1-ylsulfonyl)-N-(3,3-difluorocyclobutyl)-2-isopropylimidazo[1,2-a]pyridine-7-carboxamide] |  | > 7.00
